Assay results as given in paper PMC5572722, “Dimerization in tailoring uptake efficacy of the HSV-1 derived membranotropic peptide gH625” (Scientific Reports, 2017).
Positions of bridges follow the written chain, without caps; N, C: chain ends. Residues, ends and D or L forms follow the SMILES beside them. Chains are numbered I, II in the order given. No end group written: not given here.

Experiment: GUV image analysis, shape descriptors (light sheet fluorescence microscopy)
Conditions: [(treated GUVs − control GUVs)/control GUVs]*100
Text: GUVs appear dark against the background as a consequence of the difference in refractive index of GUVs contents (sucrose solution) and the surrounding medium (glucose solution). A white halo appears around the vesicle. Formation of pores and of protuberances may be thus evidenced. GUVs appear under differential interference contrast (DIC) round shaped with an average smaller area compared to GUVs treated with gH625 (Table 5, Figure 8). […] The addition of gH625-H7 to GUVs produced a similar effect of gH625 with the only difference that it induces an enhancement of the GUVs fusion tendency (Figure 8). gH625 and gH625-H7 enhance the mean area and perimeter of GUVs (Figure 9A,C). […] Main shape descriptor analysis confirms that the addition of gH625 or gH625-H7 induces an increase in area and perimeter also indicating a decrease in circularity and roundness parameters (Table 5).
LUVs and SUVs for fluorescence,circular dichroism and surface plasmon resonance, consisting of DOPG, DOPG/Chol (60/40 mol/mol), DOPC/Chol (60/40 mol/mol), and when necessary containing Rho-PE and NBD-PE, or ANTS and DPX, were prepared in 5 mM HEPES, 100 mM NaCl, pH 7.4[66]. Aliquots containing the necessary amount of lipids were dried from a chloroform solution with a nitrogen gas stream and lyophilized overnight to produce dry lipid films which were then resuspended in buffer and vortexed for 1 h; the lipid suspension was freeze-thawed 6 times to obtain multilamellar vesicles (MLV). […] Lipid concentrations of liposome suspensions were determined by phosphate analysis. […]
GUVs were used upon one day from preparation. Ten microliters of fluorescent GUVs were analyzed (before and after the addition of gH625 or gH625-H7) under a custom made light sheet fluorescent microscope equipped with five laser lines (λ = 375 nm Coherent Cube, λ = 405 nm Coherent Cube, λ = 473 nm Laserworld Blue-200, λ = 532 nm Coherent Compass 215 M-10 DPSS laser and λ = 632.8 nm Thorlabs HRR005S Helium-Neon laser), a motorized microscope MS-2000 XY stage with LX-4000 controller (Applied Scientific Instrumentation), a Focus Drive motorized Z stage (Tofra Inc.) and Nano-F200S nanopositioner controlled by Nanodrive® controller (Mad City Labs); all devices were managed by MicroManager software. […] The emerging fluorescence was detected by the Orca flash 2.8 sCMOS camera (Hamamatsu) driven by Dalsa Xcelera (Teledyne DALSA) PCIe card mounted on AMD FX-8 core 3.5 GHz, 32 Gb RAM pc running Windows 8.1 (Microsoft). […] GUV parameters were calculated by the Analyze particles ImageJ plugin; a minimum size of 5 μm^2 and circularity of at least […] Circularity=4π×[Area]/[Perimeter]^2 with a value of 1.0 indicating a perfect circle) was considered. […]

Molecule | Var % circularity versus GUVs alone [%] | Var % roundness versus GUVs alone [%]
CC[C@H](C)[C@H](NC(=O)[C@H](CC(C)C)NC(=O)[C@H](C)NC(=O)[C@H](CC(N)=O)NC(=O)[C@H](Cc1ccc(O)cc1)NC(=O)[C@H](Cc1c[nH]cn1)NC(=O)[C@H](C)NC(=O)[C@H](Cc1c[nH]c2ccccc12)NC(=O)[C@H](CCCNC(=N)N)NC(=O)[C@@H](NC(=O)[C@H](CC(C)C)NC(=O)[C@@H](NC(=O)[C@H](CO)NC(=O)[C@H](C)NC(=O)[C@H](CC(C)C)NC(=O)CNC(=O)[C@@H](N)Cc1c[nH]cn1)[C@@H](C)O)[C@@H](C)O)C(=O)N[C@@H](CCCNC(=N)N)C(=O)N[C@@H](C)C(=O)N[C@@H](Cc1ccccc1)C(N)=O [gH625] (H-HGLASTLTRWAHYNALIRAF-NH2) | −8.33 | −10.60
I: HGLASTLTRWAHYNALIRAFGCGKKKK-NH2 / II: HGLASTLTRWAHYNALIRAFGCGKKKK-NH2 (disulfide I:22-II:22) [gH625-H7] | −33.33 | −18.18
